Several values for one entry are separate records, joined by “and”; a condition that tells them apart may be missing. Equal entries are not always repeated.
Assay: In vitro enzyme assay to detect hydrolysis of chlorophenol red-beta-D-[…] directly proportional to the number of Toxoplasma stably expressing beta-galactosidase
Type: functional, organism-based, Toxoplasma gondii
Conditions: for IC50: Toxoplasma gondii

Cc1ccc(CN2Cc3nnn(C)c3C(COCc3ccccc3)C2)s1.O=C(O)C(F)(F)F (centres undefined)
pIC50: 4.987 | IC50: 7.69 µM

Cn1nnc2c1C(COCC1CC1)CN(C(=O)Cc1cccs1)C2 (centres undefined)
pIC50: 4.541 | IC50: 30.9 µM

CCN1CCc2nc(NC(=O)c3ccncc3)sc2C1
IC50: > 50.1 µM

O=C(c1cnsn1)N1CCN(C2CC2)C(=O)C1
IC50: > 50.1 µM

Cc1cc(C)n(CC2CCNCC2)n1
IC50: > 50.1 µM

CC(C)NC(=O)C1CN(C(=O)CCc2ccccc2)CC12CCOCC2 (centres undefined)
IC50: > 50.1 µM

COc1cc2nc(NCc3scnc3C)nc(N)c2cc1OC
IC50: 15.6 µM

COc1ccc(-n2nnc(C(=O)O)c2-c2ccccn2)cc1
IC50: 24.8 µM

CS(=O)(=O)Nc1ccccc1CNC(=O)c1ccoc1
IC50: > 50.1 µM

CCn1c(SCC(N)=O)nnc1C(C)NC(=O)c1ccc(Cl)cc1 (centres undefined)
IC50: > 50.1 µM

CN1C(=O)c2cccn2CC1CNC(=O)c1ccco1 (centres undefined)
IC50: > 50.1 µM

N#Cc1ccc(C2NC(=O)c3cccnc3N2)cc1 (centres undefined)
IC50: > 50.1 µM

OC[C@@H]1CCCN1Cc1ccc(F)c2cccnc12
IC50: 3.76 µM

CC(C)c1ocnc1C(=O)Nc1cccc(Cn2ccccc2=O)c1
IC50: > 50.1 µM

O=C(NC1CCCC1)c1cnccn1
IC50: > 50.1 µM

OC(CNC1CCSCC1)c1cccc(OCc2ccccc2)c1 (centres undefined)
IC50: 17.2 µM

CC(C)C(O)CCNS(=O)(=O)c1ccccc1 (centres undefined)
IC50: > 50.1 µM

Cc1nnc2n1N=C(c1ccccc1)CS2
IC50: > 50.1 µM

CCc1cnc(CNC)s1
IC50: > 50.1 µM

CCN1C[C@H](NC(=O)c2snnc2C(C)C)[C@@H](OC)C1
IC50: > 50.1 µM

CCc1ccc(NC(=O)C(C)Nc2cccc3c2OCCO3)cc1 (centres undefined)
pIC50: 5.373 and 4.972

Cc1cc(C(=O)NCCc2noc(C3CC3)n2)nn1C
IC50: > 50.1 µM

CN(C)[C@@H]1CN(C(=O)c2ccccc2Br)C[C@H]1CO
IC50: > 50.1 µM

CCc1nnc(Nc2cc(C)nc(C3CCN(c4ccncn4)C3)n2)s1 (centres undefined)
IC50: > 50.1 µM

NCCN1CCC(C(N)=O)CC1
IC50: > 50.1 µM

CC(=O)Nc1ncc(S(=O)(=O)Nc2cccc(C)c2)s1
IC50: > 50.1 µM

CCOc1ccc(C(=O)N2CCC(N)CC2)cc1
IC50: > 50.1 µM

CCn1nc(C)c2nc(C(C)C)nc(NCCc3ccc(O)cc3)c21
pIC50: 4.521 | IC50: 22.2 µM

CCc1nc(Nc2ccc(C(=O)NC)cc2)c2c(n1)c(C)nn2CC
pIC50: < 4.3 | IC50: 37.2 µM

O=C(CCNC(=O)c1ccccc1F)Nc1nccs1
IC50: > 50.1 µM

CSCC(CCO)NC(=O)c1cc(F)ccc1O (centres undefined)
IC50: > 50.1 µM

CN(C)c1cc(CNC(=O)c2nccnc2N)ccn1
IC50: > 50.1 µM

Cc1cccc(NC(=O)C2CC(=O)n3cnnc3S2)c1 (centres undefined)
pIC50: 4.363 | IC50: > 50.1 µM

CS(=O)(=O)NCc1ccc(CN2CCCC2=O)cc1
IC50: > 50.1 µM

Cc1nc2c(c(NCc3ccc(N)nc3)n1)CCCC2
IC50: > 50.1 µM

O=C1CN(CC(=O)Nc2c(Cl)cccc2Cl)CCN1
IC50: > 50.1 µM

CC(=O)Nc1ccc(CN2CCCOC(C)C2)cc1 (centres undefined)
IC50: > 50.1 µM

CCN(CC)CCNc1nc(C(C)C)nc2c(C)nn(CC)c12
IC50: > 50.1 µM

CCC(CC)C(O)CNC(=O)NCC1CC1 (centres undefined)
IC50: > 50.1 µM

C1CN[C@@H]2CNC[C@@H]2C1
IC50: > 50.1 µM

Fc1ccc(-c2n[nH]cc2-c2ccnc(NCCN3CCCC3)n2)cc1
IC50: 7.48 µM

CCNc1ncc2c(n1)CN(c1ccc(OC(F)(F)F)cc1)C2=O
IC50: > 50.1 µM

c1cc(-c2c[nH]nc2C2CCCCC2)nc(N2CCCCCC2)n1
IC50: 6.23 µM

CC(=O)Nc1ncc(S(=O)(=O)Nc2ccccc2)s1
IC50: > 50.1 µM

COCC(=O)NCc1nn(CCN2CCCC2)c(=O)c2ccccc12
IC50: 26.7 µM

Cc1oc(-c2ccoc2)nc1CN1CCC[C@H]1CO
IC50: 4.96 µM

CC(C)COC1CCN(S(=O)(=O)N2CCCC2)CC1
IC50: > 50.1 µM

CCc1cnc(N2CCNCC2)s1
IC50: > 50.1 µM

CCNc1ncc2c(n1)CN(c1cccc(OC)c1)C2=O
IC50: > 50.1 µM

COC[C@@H]1CCC[C@@]12CN(Cc1ccc(C)s1)CCO2
IC50: > 50.1 µM

CC(NCC(=O)Nc1ccc(N2CCCCCC2)cc1)c1cccs1 (centres undefined)
IC50: 19.9 µM

CC(Cc1ccco1)NS(=O)(=O)N1CCOCC1 (centres undefined)
IC50: > 50.1 µM

Cn1ccnc1CN1CCC(c2ccnc(-c3cccc(O)c3)c2)C1 (centres undefined)
IC50: 37.9 µM

c1cc(SCCOCC2CCCO2)ccn1 (centres undefined)
IC50: > 50.1 µM

CCCNS(=O)(=O)c1nc2nc(C)cc(C)n2n1
IC50: > 50.1 µM

CN1CCN(Cc2c(-c3ccco3)[nH]c3ncccc23)CC1
IC50: > 50.1 µM

COc1cc2cc(C(=O)NCC(=O)O)n(C)c2c(OC)c1OC
IC50: > 50.1 µM

COc1c(CNC2(c3noc(C)n3)CCC2)c(C)nn1C
IC50: > 50.1 µM

CSC(C)C(=O)N1CCCN(c2cccnn2)CC1 (centres undefined)
IC50: > 50.1 µM

CCn1ccc(-c2cc(NCCCOc3ccccc3C)nc(C)n2)n1
IC50: 11.7 µM

O=C(c1ccc(COc2ccccc2Cl)o1)N1N=CCC1(O)C(F)(F)F (centres undefined)
pIC50: 5.104 | IC50: 6.07 µM

Cc1c(-c2cc(C(F)(F)F)nc(N3CCC(N)CC3)n2)cnn1C
pIC50: 5.176 | IC50: 4.18 µM

CCOCC(C)OC(=O)c1ccnn1C (centres undefined)
IC50: > 50.1 µM

COc1ccc(NS(=O)(=O)c2cnc(NC(C)=O)s2)cc1
IC50: > 50.1 µM

Cc1nc(N2CCN(C(=O)c3ccco3)CC2)c2c(n1)c(C)nn2C
pIC50: 4.358 | IC50: > 50.1 µM

Cc1cc(C(=O)N(C)Cc2cccs2)nc(N2CCCCC2)n1
IC50: > 50.1 µM

Cc1ccoc1C(=O)Nc1cccc(CO)n1
IC50: > 50.1 µM

CC(=O)Nc1ncc(S(=O)(=O)Nc2cccc(F)c2)s1
IC50: > 50.1 µM

CCc1ccc(CN(CCO)Cc2nccn2C)nc1
IC50: > 50.1 µM

C1CC(C2CNC2)CCO1
IC50: > 50.1 µM

COC(=O)c1cnc2c(c(C)nn2C)c1OC
IC50: > 50.1 µM

N#CCCNC(=O)CN1CCCC1
IC50: > 50.1 µM

CN(Cc1cccc(C#N)c1)Cc1ccnc(N)c1
IC50: > 50.1 µM

CCC1=NC(SCC(=O)c2ccc(OC)cc2)c2cc(CC)sc2N1 (centres undefined)
IC50: 37.7 µM

CO[C@H]1CC[C@H]2[C@H]1OCCN2Cc1ccc(F)c(F)c1
IC50: > 50.1 µM

Cc1cncc(C(N)=O)c1
IC50: > 50.1 µM

Cn1ncc(C(=O)N2CCN(S(C)(=O)=O)CC2)c1Cl
IC50: > 25.1 µM

COCCC1(CN2CCC(C(N)=O)C2)CCC1 (centres undefined)
IC50: > 50.1 µM

CCN1CCCC1CNCC(=O)N(C)C (centres undefined)
IC50: > 50.1 µM

CCCNC(=O)CCn1nc(C)cc1C
IC50: > 50.1 µM

CN(C)[C@H]1CCCCN(C(=O)Cn2cc(Cl)cn2)C1
IC50: > 50.1 µM

Cc1ccc(C(=O)NCCCNCCCN(C)C)cn1
IC50: > 50.1 µM

Cc1ccc(CN2CCC(C3CCNC3)CC2)nc1 (centres undefined)
IC50: > 50.1 µM

Fc1cc(Cl)cnc1N1CCCC(c2nccn2Cc2ccccn2)C1 (centres undefined)
IC50: > 50.1 µM

Cc1ccc(C(=O)NCCN2CCOCC2)c(C)c1
IC50: > 50.1 µM

Cc1cnc(N2CC[C@H]3[C@@H]2CCC(=O)N3c2ccccc2)nc1.O=C(O)C(F)(F)F
pIC50: 4.34 | IC50: > 50.1 µM

COC[C@H]1CCC[C@]12CN(Cc1cccc(C)n1)CCO2
pIC50: 4.382 | IC50: > 50.1 µM

O=C(NCc1ccc2c(c1)OCO2)n1ccnc1
IC50: > 50.1 µM

CCNc1ncc2c(n1)CN(c1ccc(C)c(C)c1)C2=O
IC50: > 50.1 µM

O=C(NCCC1=CCCCC1)c1cc(-c2ccc(O)cc2)n[nH]1
IC50: 0.391 µM

CC(=O)N1N=C(c2cccnc2)CC1c1ccco1 (centres undefined)
IC50: > 50.1 µM

CC(C)=CCN1CCOC(Cn2nc(C)cc2C)C1 (centres undefined)
IC50: > 50.1 µM

COc1cccc(-c2noc(C3CCN(Cc4ccccc4C)C3)n2)c1 (centres undefined)
IC50: 10.1 µM

Fc1ccccc1CN1CCn2ccnc2C1
IC50: > 50.1 µM
